Experimental data reported in PMC7955776 (Investigational new drugs, 2020).
Where “and” joins values, the source holds several entries; their conditions need not be identical. Identical values can stand only once. Like-named read-outs stand apart in the source and are kept apart here. Marks after values point to notes of the source that are not given here.

Experiments:
metastatic TNBC = conditions: in combination with first line docetaxel, metastatic TNBC patients; cited from earlier work
[1] = human, in vivo, iv, 80 mg/m2
clinical = conditions: human, in vivo, iv, 80 mg/m2
[2] = Paclitaxel plasma pharmacokinetics alone and in combination with RO4929097; conditions: 80 mg/m2 IV
[3] = Phase I 3 + 3 dose escalation: DLT and MTD; conditions: human, in vivo
[4] = Safety: adverse events graded by CTCAE v4.0; assay type: in vivo, human; conditions: with paclitaxel and carboplatin
[5] = RO4929097 plasma pharmacokinetics; assay type: in vivo, human; conditions: for AUC(0-inf) / Cmax / half-life / Vd/F: human, plasma, oral; for Vd/F: Vz/F
stage II-III TNBC = assay: Clinico-pathological response to neoadjuvant treatment; assay type: in vivo, human
[6] = ECG monitoring during cycle 1; assay type: in vivo, human; conditions: 10 patients, cycle 1, before and after dosing on days 1 and 17
[7] = 20 mg dose, Cycle 1 Day 15, N = 3, mean ± SD
[8] = 10 mg, 10 mg dose, Cycle 1 Day 1, N = 8, mean ± SD
[9] = 10 mg, 10 mg dose, Cycle 1 Day 15, N = 7, mean ± SD
[10] = 10 mg, 10 mg dose, Cycle 1 Day 17, N = 6, mean ± SD
[11] = 20 mg, 20 mg dose, Cycle 1 Day 1, N = 4, mean ± SD
[12] = 20 mg, 20 mg dose, Cycle 1 Day 15, N = 3, mean ± SD
[13] = 20 mg, 20 mg dose, Cycle 1 Day 17, N = 2, mean ± SD

## CCC[C@H](N[C@H]1CCc2cc(F)cc(F)c2C1)C(=O)Nc1cn(C(C)(C)CNCC(C)(C)C)cn1 [PF-03084014]
Metastatic TNBC
  Partial response: 16%
  Stable disease: 36%

## CC(=O)O[C@H]1C(=O)[C@@]2(C)[C@H]([C@H](OC(=O)c3ccccc3)[C@]3(O)C[C@H](OC(=O)[C@H](O)[C@@H](NC(=O)c4ccccc4)c4ccccc4)C(C)=C1C3(C)C)[C@]1(OC(C)=O)CO[C@@H]1C[C@@H]2O [Paclitaxel, paclitaxel]
[1]
  AUC INF: 4911 ± 1078 ng·h/mL
  Half life: 11.3 ± 2.5 h
clinical
  AUC(0-inf): 4800 ± 1170 ng·h/mL
  half-life: 10.3 ± 2.5 h
[2]
  Paclitaxel PK alone (day -1) versus in combination with RO4929097 (day 15): No significant differences

## CC(C)(C(=O)NCC(F)(F)C(F)(F)F)C(=O)N[C@@H]1C(=O)Nc2ccccc2-c2ccccc21 [RO4929097]
[3]
  DLTs observed, all dose levels: 2
[4]; N = 1
  SAE: depression: 7%
  SAE: glucose intolerance: 7%
  SAE: hyperglycemia: 7%
  SAE: leukopenia: 7%
  SAE: neutropenia: 7%
  SAE: thrombocytopenia: 7%
  SAE: wound dehiscence: 7%
  SAE: wound infection: 7%
[4]; N = 3
  SAE: hypertension: 21%
[4]; duration of study
  Serious adverse events (SAEs) reported, number: Eleven
[4]; treatment-related AE, N = 14
  Alopecia, All Grades: 9 (64) N (%)
  Alopecia, Grade 1: 3 (21) N (%)
  Alopecia, Grade 2: 6 (43) N (%)
  Alopecia, Grade 3: 0 (0) N (%)
  Alopecia, Grade 4: 0 (0) N (%)
  Anemia, All Grades: 12 (86) N (%)
  Anemia, Grade 1: 0 (0) N (%)
  Anemia, Grade 2: 8 (57) N (%)
  Anemia, Grade 3: 4 (29%) N (%) and 4 (29) N (%)
  Anemia, Grade 4: 0 (0) N (%)
  Anorexia, All Grades: 9 (64) N (%)
  Anorexia, Grade 1: 8 (57) N (%)
  Anorexia, Grade 2: 1 (7) N (%)
  Anorexia, Grade 3: 0 (0) N (%)
  Anorexia, Grade 4: 0 (0) N (%)
  Constipation, All Grades: 10 (71) N (%)
  Constipation, Grade 1: 10 (71) N (%)
  Constipation, Grade 2: 0 (0) N (%)
  Constipation, Grade 3: 0 (0) N (%)
  Constipation, Grade 4: 0 (0) N (%)
  Dyspnea, All Grades: 10 (71) N (%)
  Dyspnea, Grade 1: 7 (50) N (%)
  Dyspnea, Grade 2: 3 (21) N (%)
  Dyspnea, Grade 3: 0 (0) N (%)
  Dyspnea, Grade 4: 0 (0) N (%)
  Elevated aspartate aminotransferase, All Grades: 6 (43) N (%)
  Elevated aspartate aminotransferase, Grade 1: 6 (43) N (%)
  Elevated aspartate aminotransferase, Grade 2: 0 (0) N (%)
  Elevated aspartate aminotransferase, Grade 3: 0 (0) N (%)
  Elevated aspartate aminotransferase, Grade 4: 0 (0) N (%)
  Epistaxis, All Grades: 8 (57) N (%)
  Epistaxis, Grade 1: 7 (50) N (%)
  Epistaxis, Grade 2: 1 (7) N (%)
  Epistaxis, Grade 3: 0 (0) N (%)
  Epistaxis, Grade 4: 0 (0) N (%)
  Fatigue, All Grades: 11 (79) N (%)
  Fatigue, Grade 1: 5 (36) N (%)
  Fatigue, Grade 2: 5 (36) N (%)
  Fatigue, Grade 3: 1 (7%) N (%) and 1 (7) N (%)
  Fatigue, Grade 4: 0 (0) N (%)
  Headache, All Grades: 9 (64) N (%)
  Headache, Grade 1: 8 (57) N (%)
  Headache, Grade 2: 1 (7) N (%)
  Headache, Grade 3: 0 (0) N (%)
  Headache, Grade 4: 0 (0) N (%)
  Hyperglycemia, All Grades: 7 (50) N (%)
  Hyperglycemia, Grade 1: 7 (50) N (%)
  Hyperglycemia, Grade 2: 0 (0) N (%)
  Hyperglycemia, Grade 3: 0 (0) N (%)
  Hyperglycemia, Grade 4: 0 (0) N (%)
  Hypertension, All Grades: 8 (57) N (%)
  Hypertension, Grade 1: 4 (29) N (%)
  Hypertension, Grade 2: 3 (21) N (%)
  Hypertension, Grade 3: 1 (7%) N (%) and 1 (7) N (%)
  Hypertension, Grade 4: 0 (0) N (%)
  Leukopenia, All Grades: 13 (93) N (%)
  Leukopenia, Grade 1: 1 (7) N (%)
  Leukopenia, Grade 2: 7 (50) N (%)
  Leukopenia, Grade 3: 5 (36) N (%)
  Leukopenia, Grade 4: 0 (0) N (%)
  Lymphocytopenia, All Grades: 12 (86) N (%)
  Lymphocytopenia, Grade 1: 5 (36) N (%)
  Lymphocytopenia, Grade 2: 5 (36) N (%)
  Lymphocytopenia, Grade 3: 2 (14) N (%)
  Lymphocytopenia, Grade 4: 0 (0) N (%)
  Nausea, All Grades: 12 (86) N (%)
  Nausea, Grade 1: 9 (64) N (%)
  Nausea, Grade 2: 3 (21) N (%)
  Nausea, Grade 3: 0 (0) N (%)
  Nausea, Grade 4: 0 (0) N (%)
  Neutropenia, All Grades: 11 (79) N (%)
  Neutropenia, Grade 1: 0 (0) N (%)
  Neutropenia, Grade 2: 3 (21) N (%)
  Neutropenia, Grade 3: 6 (43%) N (%) and 6 (43) N (%)
  Neutropenia, Grade 4: 2 (14%) N (%) and 2 (14) N (%)
  Peripheral sensory neuropathy, All Grades: 12 (86) N (%)
  Peripheral sensory neuropathy, Grade 1: 6 (43) N (%)
  Peripheral sensory neuropathy, Grade 2: 4 (29) N (%)
  Peripheral sensory neuropathy, Grade 3: 2 (14%) N (%) and 2 (14) N (%)
  Peripheral sensory neuropathy, Grade 4: 0 (0) N (%)
  Rash maculo-papular, All Grades: 10 (71) N (%)
  Rash maculo-papular, Grade 1: 7 (50) N (%)
  Rash maculo-papular, Grade 2: 3 (21) N (%)
  Rash maculo-papular, Grade 3: 0 (0) N (%)
  Rash maculo-papular, Grade 4: 0 (0) N (%)
  Thrombocytopenia, All Grades: 11 (79) N (%)
  Thrombocytopenia, Grade 1: 4 (29) N (%)
  Thrombocytopenia, Grade 2: 2 (14) N (%)
  Thrombocytopenia, Grade 3: 4 (29%) N (%) and 4 (29) N (%)
  Thrombocytopenia, Grade 4: 1 (7%) N (%) and 1 (7) N (%)
[4]
  Hospitalizations for neutropenic fevers or other treatment-related toxicities: no hospitalizations
[4]; N = 5
  G3 or higher thrombocytopenia, patients: 36%
[4]; N = 8
  G3 or higher neutropenia, patients: 57%
[4]; six patients
  Patients with Grade 2/Grade 3 neuropathy requiring dose reduction of paclitaxel: 43%
[5]; 10 mg dose, Cycle 1 Day 1, N = 8, mean ± SD
  CL/F: 3.21 ± 0.84 L/h
[5]; 10 mg dose, Cycle 1 Day 15, N = 7, mean ± SD
  CL/F: 2.70 ± 1.07 L/h
[5]; 10 mg dose, Cycle 1 Day 17, N = 6, mean ± SD
  CL/F: 1.97 ± 1.12 L/h
[5]; 20 mg dose, Cycle 1 Day 1, N = 4, mean ± SD
  CL/F: 3.87 ± 1.09 L/h
[5]; [7]
  CL/F: 3.90 ± 2.20 L/h
  Half life: 36.0 ± 31.7 h
[5]; 20 mg dose, Cycle 1 Day 17, N = 2, mean ± SD
  CL/F: 2.47 ± 2.55 L/h
[5]; cycle 1
  Exposure on day 15 compared to day 1: 125%
[5]; cycle 1, both dose levels
  AUC (exposure) on day 17 compared to day 1: 220%
  Cmax on day 17 compared to day 1: 158%
[5]; [8]
  AUC(0-inf): 3280 ± 749 ng·h/mL
  Cmax: 203 ± 92.7 ng/mL
  half-life: 14.7 ± 2.2 h
[5]; [9]
  AUC(0-inf): 4120 ± 2140 ng·h/mL
  Cmax: 177 ± 93.6 ng/mL
  half-life: 20.1 ± 11.2 h
  Vd/F: 76.8 ± 46.8 L
[5]; [10]
  AUC(0-inf): 6210 ± 2610 ng·h/mL
  Cmax: 259 ± 113 ng/mL
  half-life: 20.6 ± 7 h
  Vd/F: 55.6 ± 25.4 L
[5]; [11]
  AUC(0-inf): 5520 ± 1680 ng·h/mL
  Cmax: 324 ± 116 ng/mL
  half-life: 22.8 ± 12.4 h
  Vd/F: 115 ± 38.6 L
[5]; [12]
  AUC(0-inf): 6730 ± 4230 ng·h/mL
  Cmax: 234 ± 25 ng/mL
  Vd/F: 139 ± 37.5 L
[5]; [13]
  AUC(0-inf): 17400 ng·h/mL
  Cmax: 422 ± 42.6 ng/mL
  half-life: 39.3 ± 39.9 h
  Vd/F: 66.3 ± 2.4 L
Stage II-III TNBC; 5 of 14 patients, with paclitaxel and carboplatin
  pCR, patients: 36%
Stage II-III TNBC; 5 patients, with paclitaxel and carboplatin
  Patients with residual disease in the breast and lymph nodes: 36%
Stage II-III TNBC; 9 of 14 patients who completed chemotherapy (1 never received RO4929097)
  Overall response rate: 64%
Stage II-III TNBC; neoadjuvant, with paclitaxel and carboplatin, N = 14
  Complete pathologic response: 5 (36) N (%)
Stage II-III TNBC; neoadjuvant, with paclitaxel and carboplatin, N = 14, one patient did not receive RO4929097
  Residual disease: 9 (64)^a,b N (%)
[6]
  QTc prolongation or other clinically significant ECG changes: No QTc prolongation or other clinically significant ECG changes were observed
